Our source for the Ki, EC50 and Stimulation values is ChEMBL document CHEMBL1136617, “Cyclic amidines as benzamide bioisosteres: EPC synthesis and SAR studies leading to the selective dopamine D4 receptor agonist FAUC 312” (Bioorg Med Chem Lett, 2003).

Each structure is given as a SMILES string.

Test [1] has as its target T1, D(4) dopamine receptor (Homo sapiens, UniProt P21917).
T1 sequence (P21917 whole entry): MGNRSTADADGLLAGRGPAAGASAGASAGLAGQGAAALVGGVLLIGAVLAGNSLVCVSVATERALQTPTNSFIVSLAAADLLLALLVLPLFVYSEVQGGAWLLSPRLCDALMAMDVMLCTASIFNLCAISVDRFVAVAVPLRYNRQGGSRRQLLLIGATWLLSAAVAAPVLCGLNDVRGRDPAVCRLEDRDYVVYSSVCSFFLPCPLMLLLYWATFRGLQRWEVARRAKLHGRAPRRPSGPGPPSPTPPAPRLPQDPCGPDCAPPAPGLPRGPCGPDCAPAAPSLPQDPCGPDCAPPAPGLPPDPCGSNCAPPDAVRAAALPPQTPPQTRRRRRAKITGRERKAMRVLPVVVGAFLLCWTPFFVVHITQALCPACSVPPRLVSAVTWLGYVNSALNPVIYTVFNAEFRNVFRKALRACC
Nature of the test: biochemical. In kind it is cell-based, CHO.
Description: In vitro binding affinity to displace [3H]spiperone from the cloned human dopamine receptor D4 in CHO cells

Test [2] concerns the target D(1A) dopamine receptor (Bos taurus, UniProt Q95136). Nature of the test: In vitro Binding affinity towards dopamine D1 receptor using bovine striatal membrane preparations and antagonist [3H]-SCH- 23390. On the set-up: species or system Striatum.
In test [3] the target is T2, D(2) dopamine receptor (Homo sapiens, UniProt P14416). Nature of the test: biochemical. In kind it is cell-based, CHO.
In test [4] the target is T2, D(2) dopamine receptor. Nature of the test: biochemical. In kind it is cell-based, CHO. This is another data set of the same source.
Description: In vitro binding affinity to displace [3H]-spiperone from the cloned human dopamine receptor D2 short in CHO cells
Test [5] deals with T3, D(3) dopamine receptor (Homo sapiens, UniProt P35462). Nature of the test: biochemical.
Test [6] addresses T1, D(4) dopamine receptor. Nature of the test: In vitro binding affinity to displace [3H]-spiperone from the cloned human dopamine receptor D4 in CHO cells. It counts as cell-based.
Test [7] concerns the target T3, D(3) dopamine receptor. Nature of the test: In vitro binding affinity to displace [3H]spiperone from the cloned human dopamine receptor D3 in CHO cells. It counts as cell-based.
The target of test [8] is T2, D(2) dopamine receptor. Nature of the test: In vitro binding affinity to displace [3H]spiperone from the cloned human dopamine receptor D2 long in CHO cells. It counts as cell-based.
In test [9] the target is T2, D(2) dopamine receptor. Nature of the test: In vitro binding affinity to displace [3H]spiperone from the cloned human dopamine receptor D2 short in CHO cells. In kind it is cell-based.
For test [10], the target named is T3, D(3) dopamine receptor. Nature of the test: In vitro ability to displace [3H]spiperone from cloned human dopamine D3 receptor expressed in CHO cells. In kind it is cell-based.
Test [11] deals with T2, D(2) dopamine receptor. Nature of the test: In vitro ability to displace [3H]spiperone from the cloned human dopamine D2 short receptor expressed in CHO cells. It counts as cell-based.
Test [12] concerns the target T1, D(4) dopamine receptor. Nature of the test: In vitro ability to displace [3H]spiperone from the cloned human dopamine D4 receptor expressed in CHO cells. In kind it is cell-based.
Test [13] has as its target T1, D(4) dopamine receptor. Nature of the test: Effective concentration for [3H]thymidine uptake in growing CHO cells stably expressing the dopamine D4.2 receptor. It counts as cell-based.
In test [14] the target is T2, D(2) dopamine receptor. Nature of the test: In vitro ability to displace [3H]spiperone from the cloned human dopamine D2 long receptor expressed in CHO cells. In kind it is cell-based.
Test [15] deals with T4, D(4) dopamine receptor (Homo sapiens) (UniProt P21917).
T4 sequence (whole entry): T1 sequence (P21917 whole entry)
Nature of the test: In vitro functional assay measuring the [3H]thymidine uptake in growing CHO cells stably expressing the dopamine D4.2 receptor was performed. In kind it is cell-based.

T3 sequence (P35462 whole entry): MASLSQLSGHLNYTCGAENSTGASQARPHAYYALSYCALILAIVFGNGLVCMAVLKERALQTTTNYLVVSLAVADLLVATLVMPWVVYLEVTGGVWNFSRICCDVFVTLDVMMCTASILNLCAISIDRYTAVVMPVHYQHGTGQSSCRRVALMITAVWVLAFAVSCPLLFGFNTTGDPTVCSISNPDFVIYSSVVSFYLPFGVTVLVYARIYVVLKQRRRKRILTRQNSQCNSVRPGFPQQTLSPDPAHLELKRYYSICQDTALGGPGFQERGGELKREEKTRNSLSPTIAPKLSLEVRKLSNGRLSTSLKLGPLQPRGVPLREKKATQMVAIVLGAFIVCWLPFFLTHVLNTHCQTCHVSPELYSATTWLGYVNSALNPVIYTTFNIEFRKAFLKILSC
Chain of D(1A) dopamine receptor (Q95136 whole entry): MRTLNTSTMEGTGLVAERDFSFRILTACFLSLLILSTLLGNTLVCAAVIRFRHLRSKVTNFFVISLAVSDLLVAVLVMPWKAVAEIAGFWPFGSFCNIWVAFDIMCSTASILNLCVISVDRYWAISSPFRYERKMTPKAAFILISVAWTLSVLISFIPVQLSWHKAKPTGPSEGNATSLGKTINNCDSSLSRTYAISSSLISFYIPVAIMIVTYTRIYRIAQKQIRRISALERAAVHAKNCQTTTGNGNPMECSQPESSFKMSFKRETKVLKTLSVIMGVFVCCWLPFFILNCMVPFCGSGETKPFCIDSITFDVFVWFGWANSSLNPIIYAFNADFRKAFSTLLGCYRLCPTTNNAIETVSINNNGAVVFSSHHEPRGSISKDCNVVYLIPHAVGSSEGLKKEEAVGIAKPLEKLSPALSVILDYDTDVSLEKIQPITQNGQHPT
T2 sequence (P14416 whole entry): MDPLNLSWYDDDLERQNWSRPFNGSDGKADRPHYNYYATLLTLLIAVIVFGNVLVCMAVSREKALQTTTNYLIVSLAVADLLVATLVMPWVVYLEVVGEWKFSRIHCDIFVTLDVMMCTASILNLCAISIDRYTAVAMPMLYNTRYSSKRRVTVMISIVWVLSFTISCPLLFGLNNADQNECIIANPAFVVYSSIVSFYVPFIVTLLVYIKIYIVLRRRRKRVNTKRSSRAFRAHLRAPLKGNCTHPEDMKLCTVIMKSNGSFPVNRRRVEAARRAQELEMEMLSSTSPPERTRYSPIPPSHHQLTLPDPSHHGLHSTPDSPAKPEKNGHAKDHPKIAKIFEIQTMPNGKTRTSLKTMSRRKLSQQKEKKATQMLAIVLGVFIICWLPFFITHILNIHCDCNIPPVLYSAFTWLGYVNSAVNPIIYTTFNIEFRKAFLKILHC

As to `c1ccc(C2=NCC(N3CCN(c4ccccc4)CC3)CCN2)cc1` (single isomer, unassigned), the Ki was found to be 4.4 µM in [1]; 23 µM in test [2]; 19 µM in test [3]; 14 µM in test [4]; 3.3 µM in test [5].
Turning to `c1ccc(C2=NCC[C@@H](CN3CCN(c4ccccc4)CC3)N2)cc1`, the Ki in [2] came to 39 µM; in [6], 0.31 µM; in [7] it was 13 µM; in [8], 29 µM; in test [9], 30 µM.
Turning to `O=C1C[C@@H](CN2CCN(c3ccccc3)CC2)N=C(c2ccccc2)N1`, the Ki in [1] worked out at 3.7 µM; in [2], 8.9 µM; in test [3], 18 µM; in test [4], 6.4 µM; in test [5], 20 µM.
As for `c1ccc(C2=N[C@@H](CN3CCN(c4ccccc4)CC3)CCN2)cc1`, the Ki in test [10] worked out at 13 µM; in test [2], 29 µM; in test [11], 32 µM; in test [12], 0.0015 µM; in [14] it was 25 µM. This molecule showed an EC50 in [13] of 0.05 µM.
As for `c1ccc(C2=NCC[C@H](CN3CCN(c4ccccc4)CC3)N2)cc1`, the Stimulation in test [15] came to 83%.
`c1ccc(C2=NC[C@H](N3CCN(c4ccccc4)CC3)CCN2)cc1`: the Ki in test [1] is 0.12 µM; in [2] it was 23 µM; in [3], 10 µM; in test [4], 4.2 µM; in test [5], 12 µM.
For the molecule `COc1ccc(Br)cc1C1=NCC[C@H](CN2CCN(c3ccccc3)CC2)N1`, the Ki was determined as 1.6 µM in test [1]; 15 µM in test [2]; 44 µM in test [3]; 43 µM in [4]; 7.4 µM in test [5].
Consider `O=C1C[C@H](CN2CCN(c3ccccc3)CC2)N=C(c2ccccc2)N1`, for which the inhibitory constant (Ki) in test [1] worked out at 0.46 µM; in [2], 19 µM; in test [3], 7.3 µM; in [4], 2.8 µM; in [5], 12 µM.
For `COc1ccc(Br)cc1C1=NCC[C@@H](CN2CCN(c3ccccc3)CC2)N1`, the Ki in test [1] was determined as 3.5 µM; in [2], 9.1 µM; in [3], 16 µM; in [4] it was 14 µM; in [5] it was 1.9 µM.
